# According to PubChem BioAssay AID1259407 (Chemical Carcinogenesis Research Information System (CCRIS), 2018):
# Calls of active or inactive are those of the source. How the calls were made is not given here.
# System: CCRIS mutagenicity, Ames/micronucleus/aberration tests
# Experiment: CCRIS mutagenicity studies
smiles,measurement,setting,value
Nc1ccccc1,mutagenic call,"End Point: IN VITRO CHROMOSOMAL ABERRATIONS, Test System: CHINESE HAMSTER OVARY CELLS, Metabolic Activation: NONE",inactive; negative
same,mutagenic call,"End Point: IN VITRO CHROMOSOMAL ABERRATIONS, Test System: CHINESE HAMSTER OVARY CELLS, Metabolic Activation: RAT, LIVER, S-9, AROCLOR 1254",active; positive
same,mutagenic call,"End Point: IN VITRO MICRONUCLEUS, Test System: CHL/IU CELLS, Metabolic Activation: RAT, LIVER, S-9, PHENOBARBITAL AND 5,6-BENZOFLAVONE",active; positive
same,mutagenic call,"End Point: IN VIVO MICRONUCLEUS, Test System: BONE MARROW, Species: MOUSE, Strain/Sex: B6C3F1/MALE, Route: GAVAGE",active; positive
same,mutagenic call,"End Point: In vivo chromosomal aberrations, Test System: Bone marrow erythrocytes, Species: Rat, Strain/Sex: PVG/Male, Route: Oral",active; positive (structural changes) at 500 mg/kg (p<0.01)
same,mutagenic call,"End Point: In vivo micronucleus, Test System: Bone marrow erythrocytes, Species: Mouse, Strain/Sex: CRH/Male, Route: Intraperitoneal",active; positive (p<0.05)
same,mutagenic call,"Test System: AMES SALMONELLA TYPHIMURIUM, Strain/Indicator: TA97, Metabolic Activation: NONE, Method: STANDARD PLATE",inactive; negative
same,mutagenic call,"Test System: AMES SALMONELLA TYPHIMURIUM, Strain/Indicator: TA97, Metabolic Activation: RAT, LIVER, S-9, AROCLOR 1254, Method: STANDARD PLATE",inactive; negative
same,mutagenic call,"Test System: AMES SALMONELLA TYPHIMURIUM, Strain/Indicator: TA98(NR), Metabolic Activation: NONE, Method: PREINCUBATION",inactive; negative
same,mutagenic call,"Test System: AMES SALMONELLA TYPHIMURIUM, Strain/Indicator: TA98(NR), Metabolic Activation: RAT, LIVER, S-9, AROCLOR 1254, Method: PREINCUBATION",inactive; negative
same,mutagenic call,"Test System: AMES SALMONELLA TYPHIMURIUM, Strain/Indicator: TA98, Metabolic Activation: HAMSTER, LIVER, S-9, AROCLOR 1254, Method: STANDARD PLATE",inactive; negative
same,mutagenic call,"Test System: AMES SALMONELLA TYPHIMURIUM, Strain/Indicator: TA98, Metabolic Activation: HAMSTER, LIVER, S-9, Method: STANDARD PLATE",inactive; negative
same,mutagenic call,"Test System: AMES SALMONELLA TYPHIMURIUM, Strain/Indicator: TA98, Metabolic Activation: MOUSE, LIVER, S-9, AROCLOR 1254, Method: STANDARD PLATE",inactive; negative
same,mutagenic call,"Test System: AMES SALMONELLA TYPHIMURIUM, Strain/Indicator: TA98, Metabolic Activation: MOUSE, LIVER, S-9, Method: STANDARD PLATE",inactive; negative
same,mutagenic call,"Test System: AMES SALMONELLA TYPHIMURIUM, Strain/Indicator: TA98, Metabolic Activation: NONE, Method: STANDARD PLATE",inactive; negative
same,mutagenic call,"Test System: AMES SALMONELLA TYPHIMURIUM, Strain/Indicator: TA98, Metabolic Activation: PEA APICAL BUD S-9, Method: PREINCUBATION",inactive; negative
same,mutagenic call,"Test System: AMES SALMONELLA TYPHIMURIUM, Strain/Indicator: TA98, Metabolic Activation: PEA APICAL BUD S-9, Method: STANDARD PLATE",inactive; negative
same,mutagenic call,"Test System: AMES SALMONELLA TYPHIMURIUM, Strain/Indicator: TA98, Metabolic Activation: RAT, LIVER, S-9, AROCLOR 1254, Method: STANDARD PLATE",inactive; negative
same,mutagenic call,"Test System: AMES SALMONELLA TYPHIMURIUM, Strain/Indicator: TA98, Metabolic Activation: RAT, LIVER, S-9, ETHANOL, Method: PREINCUBATION",inactive; negative
same,mutagenic call,"Test System: AMES SALMONELLA TYPHIMURIUM, Strain/Indicator: TA98, Metabolic Activation: RAT, LIVER, S-9, PHENOBARBITAL, Method: PREINCUBATION",inactive; negative
same,mutagenic call,"Test System: AMES SALMONELLA TYPHIMURIUM, Strain/Indicator: TA98, Metabolic Activation: RAT, LIVER, S-9, PYRAZOLE, Method: PREINCUBATION",inactive; negative
same,mutagenic call,"Test System: AMES SALMONELLA TYPHIMURIUM, Strain/Indicator: TA98, Metabolic Activation: RAT, LIVER, S-9, Method: STANDARD PLATE",inactive; negative
same,mutagenic call,"Test System: AMES SALMONELLA TYPHIMURIUM, Strain/Indicator: TA100(NR), Metabolic Activation: NONE, Method: PREINCUBATION",inactive; negative
same,mutagenic call,"Test System: AMES SALMONELLA TYPHIMURIUM, Strain/Indicator: TA100(NR), Metabolic Activation: RAT, LIVER, S-9, AROCLOR 1254, Method: PREINCUBATION",inactive; negative
same,mutagenic call,"Test System: AMES SALMONELLA TYPHIMURIUM, Strain/Indicator: TA100, Metabolic Activation: HAMSTER, LIVER, S-9, AROCLOR 1254, Method: STANDARD PLATE",inactive; negative
same,mutagenic call,"Test System: AMES SALMONELLA TYPHIMURIUM, Strain/Indicator: TA100, Metabolic Activation: HAMSTER, LIVER, S-9, Method: STANDARD PLATE",inactive; negative
same,mutagenic call,"Test System: AMES SALMONELLA TYPHIMURIUM, Strain/Indicator: TA100, Metabolic Activation: MOUSE, LIVER, S-9, AROCLOR 1254, Method: STANDARD PLATE",inactive; negative
same,mutagenic call,"Test System: AMES SALMONELLA TYPHIMURIUM, Strain/Indicator: TA100, Metabolic Activation: MOUSE, LIVER, S-9, Method: STANDARD PLATE",inactive; negative
same,mutagenic call,"Test System: AMES SALMONELLA TYPHIMURIUM, Strain/Indicator: TA100, Metabolic Activation: NONE, Method: STANDARD PLATE",inactive; negative
same,mutagenic call,"Test System: AMES SALMONELLA TYPHIMURIUM, Strain/Indicator: TA100, Metabolic Activation: PEA APICAL BUD S-9, Method: PREINCUBATION",inactive; negative
same,mutagenic call,"Test System: AMES SALMONELLA TYPHIMURIUM, Strain/Indicator: TA100, Metabolic Activation: PEA APICAL BUD S-9, Method: STANDARD PLATE",inactive; negative
same,mutagenic call,"Test System: AMES SALMONELLA TYPHIMURIUM, Strain/Indicator: TA100, Metabolic Activation: RAT, LIVER, S-9, AROCLOR 1254, Method: PREINCUBATION",inactive; negative
same,mutagenic call,"Test System: AMES SALMONELLA TYPHIMURIUM, Strain/Indicator: TA100, Metabolic Activation: RAT, LIVER, S-9, AROCLOR 1254, Method: STANDARD PLATE",inactive; negative
same,mutagenic call,"Test System: AMES SALMONELLA TYPHIMURIUM, Strain/Indicator: TA100, Metabolic Activation: RAT, LIVER, S-9, ETHANOL, Method: PREINCUBATION",inactive; negative
same,mutagenic call,"Test System: AMES SALMONELLA TYPHIMURIUM, Strain/Indicator: TA100, Metabolic Activation: RAT, LIVER, S-9, PHENOBARBITAL, Method: PREINCUBATION",inactive; negative
same,mutagenic call,"Test System: AMES SALMONELLA TYPHIMURIUM, Strain/Indicator: TA100, Metabolic Activation: RAT, LIVER, S-9, PYRAZOLE, Method: PREINCUBATION",inactive; negative
same,mutagenic call,"Test System: AMES SALMONELLA TYPHIMURIUM, Strain/Indicator: TA100, Metabolic Activation: RAT, LIVER, S-9, Method: STANDARD PLATE",inactive; negative
same,mutagenic call,"Test System: AMES SALMONELLA TYPHIMURIUM, Strain/Indicator: TA102, Metabolic Activation: RAT, LIVER, S-9, AROCLOR 1254, Method: STANDARD PLATE",inactive; negative
same,mutagenic call,"Test System: AMES SALMONELLA TYPHIMURIUM, Strain/Indicator: TA102, Metabolic Activation: RAT, LIVER, S-9, PYRAZOLE, Method: PREINCUBATION",inactive; negative
same,mutagenic call,"Test System: AMES SALMONELLA TYPHIMURIUM, Strain/Indicator: TA1535, Metabolic Activation: HAMSTER, LIVER, S-9, AROCLOR 1254, Method: STANDARD PLATE",inactive; negative
same,mutagenic call,"Test System: AMES SALMONELLA TYPHIMURIUM, Strain/Indicator: TA1535, Metabolic Activation: HAMSTER, LIVER, S-9, Method: STANDARD PLATE",inactive; negative
same,mutagenic call,"Test System: AMES SALMONELLA TYPHIMURIUM, Strain/Indicator: TA1535, Metabolic Activation: MOUSE, LIVER, S-9, AROCLOR 1254, Method: STANDARD PLATE",inactive; negative
same,mutagenic call,"Test System: AMES SALMONELLA TYPHIMURIUM, Strain/Indicator: TA1535, Metabolic Activation: MOUSE, LIVER, S-9, Method: STANDARD PLATE",inactive; negative
same,mutagenic call,"Test System: AMES SALMONELLA TYPHIMURIUM, Strain/Indicator: TA1535, Metabolic Activation: NONE, Method: STANDARD PLATE",inactive; negative
same,mutagenic call,"Test System: AMES SALMONELLA TYPHIMURIUM, Strain/Indicator: TA1535, Metabolic Activation: RAT, LIVER, S-9, AROCLOR 1254, Method: STANDARD PLATE",inactive; negative
same,mutagenic call,"Test System: AMES SALMONELLA TYPHIMURIUM, Strain/Indicator: TA1535, Metabolic Activation: RAT, LIVER, S-9, PYRAZOLE, Method: PREINCUBATION",inactive; negative
